Where “and” joins values, the source holds several entries; their conditions need not be identical. Equal values may be shown once. Entries after “also recorded” stand apart in the source; their conditions may differ. Marks after values point to notes of the source that are not given here.
Key:
HBMEC cells = assay: Blood-brain barrier transport study (Transwell, UHPLC-q-TOF-MS); type: in vitro ADME, human; details: for Permeability / transport to the lower compartment in HBMEC cells, over the incubation times tested: OP-1 extract 40 µg mL−1, 2-24 h, time not specified (overall or maximum); for Te% ± SEM HBMEC Cells 4 h: OP-1 extract 40 µg mL−1, 4 h; for Te% ± SEM HBMEC Cells 4 h / Te% ± SEM HBMEC Cells 24 h / Te% ± SEM HBMEC Cells 2 h: Te = CLower/CUpper × 100; for Te% ± SEM HBMEC Cells 24 h: OP-1 extract 40 µg mL−1, 24 h; for Te% ± SEM HBMEC Cells 2 h: OP-1 extract 40 µg mL−1, 2 h
Method: The HBMEC cell line was used as a simplified in vitro model of the BBB endothelium. For this, cells were seeded at a density of 1.6 × 10^5 cells/cm^2 into 12-well Transwell® plates (0.4 μm pore, Corning Costar Corp., Corning, NY, USA) coated with rat tail collagen-I (100 μg mL^−1). Medium was changed every second day until a monolayer was formed (10 days), and the transport studies were initiated.
Medium containing 0.4% ethanol was used as the control group, and the lower chamber was filled with 1.5 mL of medium. The cells were incubated under these conditions for 2, 4, and 24 h. After incubation time, cell culture medium from both the upper and lower compartments was collected, dried using a freeze dryer (Martin Christ, Osterode am Harz, Germany), and stored at −80 °C until the chemical characterization was performed to assess the transport efficiency of the bioactive compounds.
(§1) The transport efficiency of bioactive compounds across the cell layer (Te) was calculated using the Equation (1) proposed by Pogačnik et al. (2016):Te = CLower/CUpper × 100%(1)
(§2) This calculation was performed to understand whether the compound crosses the cell layer and how efficiently it is transported. Here, CLower represents the relative concentration (peak area) of the compound in the lower compartment, and CUpper represents the relative concentration (peak area) of the compound in the upper compartment.
(§3) Obtained samples from the transport assays performed in HBMEC and Caco-2 cells were extracted to recover and concentrate the bioactive compounds in the upper and lower compartments and to prevent possible interferences of the cell culture medium in the analyses. Briefly, dried samples were resuspended in 0.5 mL of H2O and mixed with vortex for 10 s. Then, 0.5 mL of AcOEt was added, mixed with vortex for 10 s, and centrifuged at 14,000 rpm for 5 min. After centrifugation, the supernatant (AcOEt) was carefully transferred to a 1.5 mL Eppendorf tube and dried in a SpeedVac (SPD1030, Thermo Fisher Scientific) device at 40 °C and 13 mbar pressure. Finally, the dried extracts were resuspended in 25 μL of pure ethanol for their subsequent analysis.
(§4) The analysis of the obtained samples from HBMEC cells, Caco-2 cells, and PAMPA-BBB experiments was carried out using the same conditions and instrumentation as in our previous study. Briefly, 10 μL of each sample was injected into an Agilent 1290 UHPLC system equipped with a DAD detector and coupled to an Agilent 6540 q-TOF/MS equipped with an orthogonal atmospheric pressure chemical ionization (APCI) source, all from Agilent Technologies (Santa Clara, CA, USA). Carotenoids were separated using a Thermo Fisher Scientific Accucore C30 column (2.6 μm, 4.6 × 50 mm), applying a flow rate of 0.8 mL min^−1 at 30 °C. Methanol/MTBE/water (90:7:3%) and methanol/MTBE (10:90%) were used as mobile phases, and the chromatographic gradient started with 0%B, changing it to 100%B within 12 min. This was kept constant for 1.5 min before returning to the initial conditions.
(§5) The results were processed using the Agilent Mass Hunter Qualitative software (version B.10.0). A peak intensity threshold of 5000 (nearly 4 times the noise signal) in the upper compartments was applied to obtain reliable and accurate results, and a relative quantification was performed. Peaks below this threshold value were excluded from the analysis.

Caco-2 cells = assay: Intestinal transepithelial transport study (Transwell, UHPLC-q-TOF-MS); type: in vitro ADME, human; details: for Permeability / transport to the lower compartment in Caco-2 cells, over the incubation times tested: OP-1 extract 40 µg mL−1, 2-24 h, time not specified (overall or maximum); for Te% ± SEM Caco-2 Cells 2 h: OP-1 extract 40 µg mL−1, 2 h; for Te% ± SEM Caco-2 Cells 2 h / Te% ± SEM Caco-2 Cells 4 h / Te% ± SEM Caco-2 Cells 24 h: Te = CLower/CUpper × 100; for Te% ± SEM Caco-2 Cells 4 h: OP-1 extract 40 µg mL−1, 4 h; for Te% ± SEM Caco-2 Cells 24 h: OP-1 extract 40 µg mL−1, 24 h
Method: as §1, §2
Caco-2 cells were grown according to the protocol described by Rojo-Poveda et al. (2020) to evaluate the intestinal permeability. Briefly, Caco-2 cells were seeded into inserts (0.4 μm pore, Corning Costar Corp., Corning, NY, USA) in 12-well plates. Then, 0.5 mL of complete DMEM culture medium containing approximately 300,000 cells was applied to the apical surface (AP) of each insert, and 1.5 mL of the same culture medium was added to the basolateral side (BL). Cells were allowed to grow for 21 days to differentiate and form a monolayer, changing the culture medium every 2–3 days.
The Caco-2 transport studies were performed using the same procedures as for HBMEC experiments (described in Section 4.5.2 and Section 4.5.3), but using DMEM as cell culture medium and recording TEER measurements.
as §3, §4, §5

[1] = Neuroprotection against L-glutamate-induced toxicity in SH-SY5Y cells (MTT); details: human
Method: Then, the viability was determined by the MTT assay as below. At the end of the 24 h incubation period, the medium was removed, and 0.5 mg mL^−1 MTT solution was added to each well. The cells were incubated at 37 °C for 3 h. At the end of the incubation, MTT was carefully removed, and formazan crystals in the wells were dissolved by adding 100 µL of DMSO. The absorbance of the solution was measured by a plate reader at 570 nm wavelength. Cell viability was calculated by comparing the absorbance values of treated cells with the control group (ethanol-treated cells). […] All the experiments were performed in triplicate.
In the control group, DMEM/F12 cell medium supplemented with 1% FBS, 100 U mL^−1 penicillin, 100 μg mL^−1 streptomycin, 250 ng mL^−1 antimycotic, and 0.4% ethanol was used. […] Cell viability was assessed by MTT assay at the end of the experiments. All the experiments were repeated three times.

[2] = test system: differentiated SH-SY5Y cells; assay: Neuroprotection against H2O2-induced toxicity in SH-SY5Y cells (MTT); type: cell-based, human; details: H2O2 65 µM, 24 h
Method: All the experiments were performed in triplicate.
All the experiments were repeated three times.

Compound | Permeability / transport to the lower compartment in HBMEC cells, over the incubation times tested (HBMEC cells) | Permeability / transport to the lower compartment in Caco-2 cells, over the incubation times tested (Caco-2 cells) | Te% ± SEM HBMEC Cells 24 h (HBMEC cells) | other results
echinenone II | could not be detected in the lower compartment | could not be detected in the lower compartment |  | 
CC1=C(C#C/C(C)=C/C=C/C(C)=C/C=C/C=C(C)/C=C/C=C(C)/C=C/C2=C(C)C[C@@H](O)CC2(C)C)C(C)(C)C[C@H](O)C1 [Diatoxanthin] | 8.1% | 4.4% | 8.1 ± 3.4 ^a % | Te% ± SEM HBMEC Cells 4 h (HBMEC cells): 1.1 ± 0.1 ^b %; Te% ± SEM HBMEC Cells 4 h (HBMEC cells; listed as diatoxanthin): 1.1%; Te% ± SEM HBMEC Cells 24 h (HBMEC cells; listed as diatoxanthin): 8.1%; Te% ± SEM Caco-2 Cells 2 h (Caco-2 cells): 1.4 ± 0.1 ^c %; Te% ± SEM Caco-2 Cells 2 h (Caco-2 cells; listed as diatoxanthin): 1.4%; Te% ± SEM Caco-2 Cells 4 h (Caco-2 cells): 2.3 ± 0.3 ^b %; Te% ± SEM Caco-2 Cells 24 h (Caco-2 cells): 4.4 ± 0.9 ^a %; Te% ± SEM Caco-2 Cells 24 h (Caco-2 cells; listed as diatoxanthin): 4.4%
CC(/C=C/C=C(C)/C=C/[C@@]12O[C@]1(C)C[C@@H](O)CC2(C)C)=C\C=C\C=C(C)\C=C\C=C(C)\C=C\[C@@]12O[C@]1(C)C[C@@H](O)CC2(C)C [Violaxanthin] |  | could not be detected; also recorded: could not pass through the intestinal epithelium | 13.9 ± 6.0% | 
CC(=C/C=C/C(C)=C/C=C/C=C(C)/C=C/C=C(\C)C=C=C1C(C)(C)C[C@H](O)C[C@@]1(C)O)/C=C/[C@@]12O[C@]1(C)C[C@@H](O)CC2(C)C [Neoxanthin] | 13.2% | ≈ 0.6% and 0.6% | 13.2 ± 4.3 ^a % | Te% ± SEM HBMEC Cells 4 h (HBMEC cells): 1.4 ± 0.2 ^b %; Te% ± SEM HBMEC Cells 4 h (HBMEC cells; listed as neoxanthin): 1.4%; Te% ± SEM HBMEC Cells 24 h (HBMEC cells; listed as neoxanthin): 13.2%; Te% ± SEM Caco-2 Cells 2 h (Caco-2 cells): 0.5 ± 0.3 ^b %; Te% ± SEM Caco-2 Cells 4 h (Caco-2 cells): 0.4 ± 0.1 ^b %; Te% ± SEM Caco-2 Cells 24 h (Caco-2 cells): 0.6 ± 0.4 ^a %
CC1=C(/C=C/C(C)=C/C=C/C(C)=C/C=C/C=C(C)/C=C/C=C(C)/C=C/[C@@]23O[C@]2(C)C[C@@H](O)CC3(C)C)C(C)(C)C[C@H](O)C1 [antheraxanthin] | could not be detected in the lower compartment | could not be detected in the lower compartment |  | 
CC1=C(C#C/C(C)=C/C=C/C(C)=C/C=C/C=C(C)/C=C/C=C(C)/C=C/C2=C(C)CCCC2(C)C)C(C)(C)C[C@H](O)C1 [Crocoxanthin] | ≈ 3% and 3% | ≈ 12% and 12.1% | 2.7 ± 0.6 ^a % | Te% ± SEM HBMEC Cells 2 h (HBMEC cells): 3.4 ± 3.2 ^a %; Te% ± SEM HBMEC Cells 4 h (HBMEC cells): 0.9 ± 0.3 ^b %; Te% ± SEM Caco-2 Cells 2 h (Caco-2 cells): 12.0 ± 9.5 ^a %; Te% ± SEM Caco-2 Cells 4 h (Caco-2 cells): 11.8 ± 5.6 ^a %; Te% ± SEM Caco-2 Cells 24 h (Caco-2 cells): 12.1 ± 1.5 ^a %
N[C@@H](CCC(=O)O)C(=O)O [L-glutamate] |  |  |  | viability at 24 h, 23 mM [1]: 47%
zeaxanthin/lutein | could not be detected in the lower compartment | could not be detected in the lower compartment |  | 
CC1=C(C#C/C(C)=C/C=C/C(C)=C/C=C/C=C(C)/C=C/C=C(C)/C=C/[C@@]23O[C@]2(C)C[C@@H](O)CC3(C)C)C(C)(C)C[C@H](O)C1 [diadinoxanthin] | could not be detected in the lower compartment | could not be detected in the lower compartment |  | 
echinenone I | could not be detected in the lower compartment | could not be detected in the lower compartment |  | 
C=C1C[C@@H](O)CC(C)(C)[C@]1(O)CC(=O)/C(C)=C/C=C/C(C)=C/C=C/C=C(C)/C=C/C=C(C)/C=C/[C@H]1C(C)=C[C@H](O)CC1(C)C [Prasinoxanthin] |  | could not be detected; also recorded: could not pass through the intestinal epithelium | 8.9 ± 2.3% | 
CC1=C(/C=C/C(C)=C/C=C/C(C)=C/C=C/C=C(C)/C=C/C=C(C)/C=C/C2=C(C)CCCC2(C)C)C(C)(C)CCC1 [β-carotene] | could not be detected in the lower compartment | could not be detected in the lower compartment |  | 
C\C(C=C=C1C(C)(C)C[C@H](O)C[C@@]1(C)O)=C/C=C/C(C)=C/C=C/C=C(C)/C=C/C=C(\C)C(=O)C[C@@]12O[C@]1(C)C[C@@H](O)CC2(C)C [Fucoxanthinol] |  |  | 18.94% and 18.9 ± 2.3 ^a % | Te% ± SEM HBMEC Cells 2 h (HBMEC cells): 4.41% and 4.4 ± 1.1 ^c %; Te% ± SEM HBMEC Cells 2 h (HBMEC cells; listed as fucoxanthinol): 4.4%; Te% ± SEM HBMEC Cells 4 h (HBMEC cells): 5.13% and 5.1 ± 0.1 ^b %; Te% ± SEM Caco-2 Cells 2 h (Caco-2 cells): 7.01% and 7.0 ± 0.2 ^c %; Te% ± SEM Caco-2 Cells 2 h (Caco-2 cells; listed as fucoxanthinol): 7.0%; Te% ± SEM Caco-2 Cells 4 h (Caco-2 cells): 8.63% and 8.6 ± 2.2 ^b %; Te% ± SEM Caco-2 Cells 24 h (Caco-2 cells): 18.36% and 18.4 ± 7.2 ^a %
CC1=CCCC(C)(C)C1/C=C/C(C)=C/C=C/C(C)=C/C=C/C=C(C)/C=C/C=C(C)/C=C/C1=C(C)CCCC1(C)C (stereo not drawn) [α-carotene] | could not be detected in the lower compartment | could not be detected in the lower compartment |  | 
hydrogen peroxide [H2O2] |  |  |  | Cell viability compared to control group, neurotoxic agent alone [2]: 48%

Reference: article PMC12115197, “Neuroprotective Potential of Tetraselmis chuii Compounds: Insights into Blood–Brain Barrier Permeability and Intestinal Transport” (Pharmaceuticals, 2025)
